Tested on: Cryptococcus neoformans
Test: Agar dilution assay (MIC) against an expanded panel of 84 Cryptococcus neoformans strains
Type: cell-based
Conditions: 84 Cryptococcus neoformans isolates, yeast nitrogen base dextrose agar, 0.008 to 16.0 μg/ml
Procedure: Such activity may be illustrated with test results against Cryptococcus neoformans employing yeast nitrogen base dextrose agar medium. In carrying out the assay, Compound Ia' was solubilized in 10 percent dimethyl sulfoxide (DMSO) supplemented with one drop of Tween 20. Twofold dilutions were made with sterile distilled water/10 percent DMSO to obtain final drug concentrations in the agar dilution assay plates ranging from 0.008 to 16.0 μg/ml against an expanded panel of 84 Cryptococcus neoformans strains.
The minimum inhibitory concentration against the expanded panel of 84 Cryptococcus neoformans isolates may be summarized as follows: […]

Structure (SMILES): COC(=O)C(C)CNC(=O)C(Cc1ccc(OC)c(Cl)c1)NC(=O)C=CCC(OC(=O)C(O)CC(C)C)C(C)C1OC1c1ccccc1 (stereo not drawn) [Compound Ia', 5-[[2-[[2-(methoxycarbonyl)propyl]amino]-1-[(3-chloro-4-methoxyphenyl)methyl]-2-oxoethyl]amino]-5-oxo-1-[1-(3-phenyloxiranyl)ethyl]-3-pentenyl 2-hydroxy-4-methylpentanoate]
- MIC50 (concentration at which 50% of the strains were inhibited): 8.0 µg/mL
- MIC90 (concentration at which 90% of the strains were inhibited): 8.0 µg/mL
- G-MIC (geometric means of MIC) (10 percent DMSO/Tween 20): > 6.11 µg/mL

Source: patent US4868208A, “Antifungal agent and method” (Merck & Co., Inc., priority 1988, dated 1989)
